Test results: patent US20180298405A1, “METHODS AND COMPOSITIONS TO INCREASE HUMAN SOMATIC CELL NUCLEAR TRANSFER (SCNT) EFFICIENCY BY REMOVING HISTONE H3-LYSINE TRIMETHYLATION, AND DERIVATION OF HUMAN NT-ESC” (CHILDREN'S MEDICAL CENTER CORPORATION, priority 2015, published 2018)

Tested on: reprogramming resistant regions (RRRs) / ZGA genes
Assay: RNA-seq of late 8-cell human SCNT embryos with or without KDM4A mRNA injection (ZGA of RRRs, KDM4A-responsive genes)
Assay type: cell-based
Excerpt: A sliding window (size 20 kb, step size 10 kb) was used to assess the genome-wide expression level of 4-cell and 8-cell human embryos. For each window, the expression level was quantified with normalized RPM (reads per millions of uniquely mapped reads). […] These activated regions were classed into three groups based on their expression differences in human SCNT and IVF 8-cell embryos.
The SCNT embryos used for ZGA analysis were generated using oocytes donated by a single healthy person (#64) and dermal fibroblast cells from an AMD patient (DFB-8). SCNT and IVF embryos were cultured up to late 8-cell stage, when the compaction of blastomeres is initiated, then they were treated briefly with acid Tyrode solution to remove zona pellucida. To prepare for the 8-cell SCNT embryo, oocytes from a single oocyte donor, and skin fibroblast cells from a single somatic nuclear donor were used. All the procedures are the same as described in the “Human SCNT procedure and KMD4A mRNA injection” section. Only embryos that reached the late 8-cell stage synchronically 74 hours post activation were collected and used for this experiment.
For preparation of the control IVF embryos, several donated early 8-cell stage IVF embryos were thawed and cultured for 5-7 hours to allow them to reach late 8-cell stage before being processed. After removal of the zona pellucida, the denuded embryos were washed 3 times in PBS, loaded into RNAse and DNAse free PCR tubes, spin downed, and snap frozen in liquid nitrogen. Then, they were kept at −80° C. until use. As controls, dermal fibroblast cells of somatic nuclear donors were also prepared. Those fibroblast cells were cultured in a 25 cm^2 flask in DMEM 10% FBS, and approximately 10,000 cells/donor were collected, snap frozen, and stored at −80° C. until use.
Five 8-cell embryos for each group were directly lysed and used for cDNA synthesis using SMART-Seq v4 Ultra Low Input RNA Kit (Clontech). For MEF donor, 10 ng total RNA was used for cDNA synthesis using SMART-Seq v4 Ultra Low Input RNA Kit. After amplification, the cDNA samples were fragmented using Covaris sonicator M220 to an average size of 150 bp (Covaris). Sequencing libraries were made with the fragmented DNA using NEBNext Ultra DNA Library Prep Kit for Illumina according to manufacturer's instruction (New England Biolabs) with different barcodes. For each RNA-seq analysis of hESCs, 1 μg total RNA was used for mRNA purification. Barcoded RNA-seq libraries were generated using NEBNext Ultra Directional RNA Library Prep Kit for Illumina (New England Biolabs). Single end 50 bp sequencing was performed on a HiSeq 2500 sequencer (Illumina). Sequencing reads were mapped to the human genome (hg19) with Tophat2. All programs were performed with default settings (unless otherwise specified). At least 22 million uniquely mapped reads were obtained for each sequencing library, and subsequently assembled into transcripts guided by the reference annotation (Refseq gene models) with Cufflinks v2.0.2. Expression level of each gene was quantified with normalized FPKM (fragments per kilobase of exon per million mapped fragments). Statistical analyses were performed with R (available at: “www.r-project.org/”). Independent 2 group Wilcoxon rank sum tests were used to compare distributions using the wilcox.test function in R. Pearson's r coefficient was calculated using the cor function with default parameters. The hierarchical clustering analysis of the global gene expression pattern in different samples was carried out using heatmap.2 function (gplots package) in R.

KDM4A mRNA: in vitro transcribed mRNA of full length human KDM4A/JHDM3A cDNA, an H3K9me3 demethylase (SEQ ID NO: 1)
ZNF826P Fold Change (log2) [KDM4A SCNT/Control SCNT] (8-cell embryos): 2.67 log2
ZNHIT6 Fold Change (log2) [KDM4A SCNT/Control SCNT] (8-cell embryos): 1.58 log2
12-Sep Expression level (FPKM) (KDM4A SCNT 8-cell embryos): 0.3 FPKM
AASDH Expression level (FPKM) (KDM4A SCNT 8-cell embryos): 2.84 FPKM
ACBD5 Expression level (FPKM) (KDM4A SCNT 8-cell embryos): 1.62 FPKM
ALG5 Expression level (FPKM) (KDM4A SCNT 8-cell embryos): 9.71 FPKM
ALPPL2 Expression level (FPKM) (KDM4A SCNT 8-cell embryos): 3.65 FPKM
APOC1P1 Expression level (FPKM) (KDM4A SCNT 8-cell embryos): 0.43 FPKM
ATP5J2-PTCD1 Expression level (FPKM) (KDM4A SCNT 8-cell embryos): 4.51 FPKM
BEX2 Expression level (FPKM) (KDM4A SCNT 8-cell embryos): 2.68 FPKM
BLVRB Expression level (FPKM) (KDM4A SCNT 8-cell embryos): 2.11 FPKM
BTAF1 Expression level (FPKM) (KDM4A SCNT 8-cell embryos): 1.46 FPKM
BTK Expression level (FPKM) (KDM4A SCNT 8-cell embryos): 1.67 FPKM
BUD31 Expression level (FPKM) (KDM4A SCNT 8-cell embryos): 76.07 FPKM
C1D Expression level (FPKM) (KDM4A SCNT 8-cell embryos): 97 FPKM
C2orf74 Expression level (FPKM) (KDM4A SCNT 8-cell embryos): 0.41 FPKM
C11orf67 Expression level (FPKM) (KDM4A SCNT 8-cell embryos): 28.21 FPKM
C12orf60 Expression level (FPKM) (KDM4A SCNT 8-cell embryos): 46.22 FPKM
C16orf91 Expression level (FPKM) (KDM4A SCNT 8-cell embryos): 9.96 FPKM
C17orf89 Expression level (FPKM) (KDM4A SCNT 8-cell embryos): 0.75 FPKM
C18orf56 Expression level (FPKM) (KDM4A SCNT 8-cell embryos): 0.33 FPKM
C20orf7 Expression level (FPKM) (KDM4A SCNT 8-cell embryos): 2.28 FPKM
CAB39L Expression level (FPKM) (KDM4A SCNT 8-cell embryos): 4.06 FPKM
CCAR1 Expression level (FPKM) (KDM4A SCNT 8-cell embryos): 4.62 FPKM
CCDC86 Expression level (FPKM) (KDM4A SCNT 8-cell embryos): 2.88 FPKM
CCL2 Expression level (FPKM) (KDM4A SCNT 8-cell embryos): 6.1 FPKM
CCL15 Expression level (FPKM) (KDM4A SCNT 8-cell embryos): 0.89 FPKM
CELA3B Expression level (FPKM) (KDM4A SCNT 8-cell embryos): 0.49 FPKM
CENPC1 Expression level (FPKM) (KDM4A SCNT 8-cell embryos): 7.41 FPKM
CLC Expression level (FPKM) (KDM4A SCNT 8-cell embryos): 13.82 FPKM
CLDN6 Expression level (FPKM) (KDM4A SCNT 8-cell embryos): 3.54 FPKM
CLK4 Expression level (FPKM) (KDM4A SCNT 8-cell embryos): 19.9 FPKM
CNKSR3 Expression level (FPKM) (KDM4A SCNT 8-cell embryos): 0.29 FPKM
CNPY4 Expression level (FPKM) (KDM4A SCNT 8-cell embryos): 5.19 FPKM
COX7B2 Expression level (FPKM) (KDM4A SCNT 8-cell embryos): 0.79 FPKM
COX17 Expression level (FPKM) (KDM4A SCNT 8-cell embryos): 26.62 FPKM
CSAG1 Expression level (FPKM) (KDM4A SCNT 8-cell embryos): 2.22 FPKM
CSTF3 Expression level (FPKM) (KDM4A SCNT 8-cell embryos): 28.96 FPKM
CUL2 Expression level (FPKM) (KDM4A SCNT 8-cell embryos): 14.32 FPKM
CXorf61 Expression level (FPKM) (KDM4A SCNT 8-cell embryos): 0.85 FPKM
DDX26B Expression level (FPKM) (KDM4A SCNT 8-cell embryos): 1.77 FPKM
DEFB122 Expression level (FPKM) (KDM4A SCNT 8-cell embryos): 0.61 FPKM
DLEU7 Expression level (FPKM) (KDM4A SCNT 8-cell embryos): 2.91 FPKM
DNASE2 Expression level (FPKM) (KDM4A SCNT 8-cell embryos): 0.61 FPKM
DRAM1 Expression level (FPKM) (KDM4A SCNT 8-cell embryos): 0.63 FPKM
ECE2 Expression level (FPKM) (KDM4A SCNT 8-cell embryos): 1.18 FPKM
EIF1AD Expression level (FPKM) (KDM4A SCNT 8-cell embryos): 9.43 FPKM
ELL2 Expression level (FPKM) (KDM4A SCNT 8-cell embryos): 1.39 FPKM
FAM9A Expression level (FPKM) (KDM4A SCNT 8-cell embryos): 1.32 FPKM
FAM19A3 Expression level (FPKM) (KDM4A SCNT 8-cell embryos): 1.7 FPKM
FAM83D Expression level (FPKM) (KDM4A SCNT 8-cell embryos): 2.53 FPKM
FAM133B Expression level (FPKM) (KDM4A SCNT 8-cell embryos): 6.06 FPKM
FAM151A Expression level (FPKM) (KDM4A SCNT 8-cell embryos): 1.01 FPKM
FAM162A Expression level (FPKM) (KDM4A SCNT 8-cell embryos): 19.35 FPKM
FAM200A Expression level (FPKM) (KDM4A SCNT 8-cell embryos): 1.23 FPKM
FASTKD5 Expression level (FPKM) (KDM4A SCNT 8-cell embryos): 4.41 FPKM
FBXL12 Expression level (FPKM) (KDM4A SCNT 8-cell embryos): 1.8 FPKM
FMR1NB Expression level (FPKM) (KDM4A SCNT 8-cell embryos): 0.18 FPKM
FOXN2 Expression level (FPKM) (KDM4A SCNT 8-cell embryos): 5.53 FPKM
GALM Expression level (FPKM) (KDM4A SCNT 8-cell embryos): 3.67 FPKM
GIP Expression level (FPKM) (KDM4A SCNT 8-cell embryos): 12.94 FPKM
GJA1 Expression level (FPKM) (KDM4A SCNT 8-cell embryos): 1.64 FPKM
GOLGB1 Expression level (FPKM) (KDM4A SCNT 8-cell embryos): 1.36 FPKM
GUCA1B Expression level (FPKM) (KDM4A SCNT 8-cell embryos): 0.83 FPKM
GUSBP1 Expression level (FPKM) (KDM4A SCNT 8-cell embryos): 7.96 FPKM
GUSBP4 Expression level (FPKM) (KDM4A SCNT 8-cell embryos): 2.42 FPKM
H3F3A Expression level (FPKM) (KDM4A SCNT 8-cell embryos): 14.47 FPKM
IFI30 Expression level (FPKM) (KDM4A SCNT 8-cell embryos): 25.62 FPKM
IL13RA2 Expression level (FPKM) (KDM4A SCNT 8-cell embryos): 0.26 FPKM
KHDC1 Expression level (FPKM) (KDM4A SCNT 8-cell embryos): 85.25 FPKM
KHDC1L Expression level (FPKM) (KDM4A SCNT 8-cell embryos): 668.53 FPKM
KITLG Expression level (FPKM) (KDM4A SCNT 8-cell embryos): 0.93 FPKM
KLF17 Expression level (FPKM) (KDM4A SCNT 8-cell embryos): 8.4 FPKM
KLK4 Expression level (FPKM) (KDM4A SCNT 8-cell embryos): 1.41 FPKM
KLK11 Expression level (FPKM) (KDM4A SCNT 8-cell embryos): 7.07 FPKM
KPTN Expression level (FPKM) (KDM4A SCNT 8-cell embryos): 6.84 FPKM
LARP6 Expression level (FPKM) (KDM4A SCNT 8-cell embryos): 0.41 FPKM
LEMD3 Expression level (FPKM) (KDM4A SCNT 8-cell embryos): 0.59 FPKM
LIM2 Expression level (FPKM) (KDM4A SCNT 8-cell embryos): 2.01 FPKM
LINC00263 Expression level (FPKM) (KDM4A SCNT 8-cell embryos): 3.81 FPKM
LOC284408 Expression level (FPKM) (KDM4A SCNT 8-cell embryos): 1.36 FPKM
LOC347411 Expression level (FPKM) (KDM4A SCNT 8-cell embryos): 1.62 FPKM
LOC401397 Expression level (FPKM) (KDM4A SCNT 8-cell embryos): 11.19 FPKM
LOC643955 Expression level (FPKM) (KDM4A SCNT 8-cell embryos): 3.18 FPKM
LOC653513 Expression level (FPKM) (KDM4A SCNT 8-cell embryos): 1.03 FPKM
LOC723809 Expression level (FPKM) (KDM4A SCNT 8-cell embryos): 3.84 FPKM
LOC100129515 Expression level (FPKM) (KDM4A SCNT 8-cell embryos): 9.35 FPKM
LOC100289211 Expression level (FPKM) (KDM4A SCNT 8-cell embryos): 8.18 FPKM
LOC100505854 Expression level (FPKM) (KDM4A SCNT 8-cell embryos): 4.77 FPKM
LOC100506305 Expression level (FPKM) (KDM4A SCNT 8-cell embryos): 0.91 FPKM
LOC100506668 Expression level (FPKM) (KDM4A SCNT 8-cell embryos): 8.79 FPKM
LUC7L Expression level (FPKM) (KDM4A SCNT 8-cell embryos): 2.91 FPKM
M1 Expression level (FPKM) (KDM4A SCNT 8-cell embryos): 2.52 FPKM
MAGEA12 Expression level (FPKM) (KDM4A SCNT 8-cell embryos): 0.25 FPKM
MAGEB2 Expression level (FPKM) (KDM4A SCNT 8-cell embryos): 0.79 FPKM
MATR3 Expression level (FPKM) (KDM4A SCNT 8-cell embryos): 9.43 FPKM
MED31 Expression level (FPKM) (KDM4A SCNT 8-cell embryos): 27.22 FPKM
MFSD11 Expression level (FPKM) (KDM4A SCNT 8-cell embryos): 7.94 FPKM
MPV17L2 Expression level (FPKM) (KDM4A SCNT 8-cell embryos): 4.48 FPKM
MRPL28 Expression level (FPKM) (KDM4A SCNT 8-cell embryos): 1.56 FPKM
MTERF Expression level (FPKM) (KDM4A SCNT 8-cell embryos): 3.15 FPKM
NANOGNB Expression level (FPKM) (KDM4A SCNT 8-cell embryos): 30.92 FPKM
NDUFAF2 Expression level (FPKM) (KDM4A SCNT 8-cell embryos): 6.37 FPKM
NMNAT1 Expression level (FPKM) (KDM4A SCNT 8-cell embryos): 3.71 FPKM
